Read-outs that look alike come from different tables or passages of the source.
Assays:
[1] = target: PDGFRα (Homo sapiens (Human), UniProt P16234); assay: PDGFRα kinase enzyme assay (Promega PDGFRα Kinase Enzyme System, ADP-Glo); format: biochemical; conditions: 150 uM ATP
How it was run: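 Read-out was ADP-Glo: remaining ATP depleted, ADP converted to luminescence and compared with a standard curve.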

[2] = system: Oligodendrocyte progenitor cells (OPCs); assay: In vitro OPC differentiation assay, MBP expression (immunocytochemistry); conditions: 72 hours of treatment; fold change over vehicle
[3] = system: Oligodendrocyte progenitor cells (OPCs); assay: In vitro OPC differentiation assay, GPR17 expression (immunocytochemistry); conditions: 72 hours; for GPR17 Fold Induction (Over Vehicle; 3 μM): 3 μM (10× concentration, final 0.3 μM)
[4] = system: GPR17+ cells (newly differentiated oligodendrocytes); assay: In vivo OPC differentiation, GPR17+ cells in brain; conditions: for fold induction at 3 mg/kg: Mus musculus, po, 24 h, read-out: GPR17 Fold Induction (Over Vehicle); for In vivo GPR17+ cells, GPR17 Fold Induction (Over Vehicle): adult female C57BL/6 mice, PO or IP, treatment period 1-3 days, entire brain, fold change over vehicle treated animals
Method: The ability of newly constructed compounds to drive OPC differentiation and myelination in vivo was tested. The ability of these compounds to drive OPC differentiation in vivo was tested using GPR17 as an indicator of newly differentiated oligodendrocytes.
Compounds were delivered PO or IP either QD or BID. Mice were dosed once, transiently, or continuously through the treatment period, which ranged from 1-3 days.
Mice were euthanized by isoflurane exposure and transcardially perfused with 14 mL of PBS (Sigma Cat #P4417-50TAB) followed by 22 mL of 3.2% paraformaldehyde in PBS. The brains were removed and postfixed for a minimum of 24 hours in 20 mL of 3.2% paraformaldehyde.
50-micron floating sections were cut using a Leica VT1200S vibratome. Every 24th section, extending through the antero-posterior extent of the brain, was stained. The selected brain sections were washed three times in PBS for 3 minutes each. The floating sections were incubated in the primary antibodies (see Table 10, below) diluted in blocking solution overnight at room temperature on a shaker. […] The next day, the sections were again washed three times in PBS for 3 minutes each and then incubated in the secondary antibodies diluted in blocking solution for 2 hours at room temperature on a shaker. After incubation, the sections were washed three times in PBS for 3 minutes each and mounted on a slide to be imaged using the Olympus Slide Scanner VS200.
The images were analyzed using a custom protocol developed using Visiopharm software to count GPR17+ cells. Cells were considered GPR17+ if they contained an Olig2 positive nucleus, and intense GPR 17 staining that filled their processes. Statistical analysis was done using one-way ANOVA with multiple comparison in GraphPad Prism software.

[5] = 11-point dose response, 10,000 nM to 0.169 nM, BLQ = below limit of quantitation, read-out: IC50 Values on PDGFRα Kinase Inhibition, IC50
[6] = 5 μM (10× concentration, final 0.5 μM), fold change over vehicle
[7] = 20 ng purified PDGFRα, Poly (Glu4Tyr1) substrate, two hours, 11-point dose response, read-out: IC50 Values on PDGFRα Kinase Inhibition
[8] = primary rat OPCs, 5 μM (10x; final 0.5 μM per method), percent GPR17+ cells as fold change over vehicle

PDGFRα, sequence (P16234 24-1089): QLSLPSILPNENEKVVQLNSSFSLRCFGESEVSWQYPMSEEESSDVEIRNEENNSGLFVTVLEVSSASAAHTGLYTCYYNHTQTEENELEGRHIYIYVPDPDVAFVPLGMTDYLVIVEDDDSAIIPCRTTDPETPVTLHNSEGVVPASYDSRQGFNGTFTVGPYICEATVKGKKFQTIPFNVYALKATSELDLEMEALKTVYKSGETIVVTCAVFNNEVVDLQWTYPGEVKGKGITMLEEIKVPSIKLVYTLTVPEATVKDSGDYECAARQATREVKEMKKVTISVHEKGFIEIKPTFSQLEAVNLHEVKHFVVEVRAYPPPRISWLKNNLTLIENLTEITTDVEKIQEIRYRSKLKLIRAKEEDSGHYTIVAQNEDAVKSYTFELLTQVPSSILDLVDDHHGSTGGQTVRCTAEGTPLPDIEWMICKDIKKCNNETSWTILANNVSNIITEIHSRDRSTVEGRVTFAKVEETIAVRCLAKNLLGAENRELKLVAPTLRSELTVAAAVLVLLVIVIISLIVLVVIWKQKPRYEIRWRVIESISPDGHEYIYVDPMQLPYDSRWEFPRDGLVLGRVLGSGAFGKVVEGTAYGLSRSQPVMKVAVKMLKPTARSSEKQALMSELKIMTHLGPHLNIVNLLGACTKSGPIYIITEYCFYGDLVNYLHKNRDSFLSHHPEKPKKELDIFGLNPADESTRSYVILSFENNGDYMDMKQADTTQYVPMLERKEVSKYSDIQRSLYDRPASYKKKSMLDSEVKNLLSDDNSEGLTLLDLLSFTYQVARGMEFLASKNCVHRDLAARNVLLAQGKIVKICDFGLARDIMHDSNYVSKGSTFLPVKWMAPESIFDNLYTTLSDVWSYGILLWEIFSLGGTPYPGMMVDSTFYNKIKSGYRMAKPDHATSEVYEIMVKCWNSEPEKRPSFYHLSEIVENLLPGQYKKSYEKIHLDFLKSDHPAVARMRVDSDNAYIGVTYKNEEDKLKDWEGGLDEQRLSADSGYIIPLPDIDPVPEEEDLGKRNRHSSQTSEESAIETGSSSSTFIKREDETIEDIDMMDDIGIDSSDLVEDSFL

| Molecule | IC50 [1, 5] [nM] | MBP Fold Induction (Over vehicle) [2] | GPR17 Fold Induction (Over Vehicle; 3 μM) ([3]; fold change over vehicle) | GPR17 Fold Induction (Over Vehicle; 5 μM) [3, 6] | IC50 [1, 7] [nM] | fold induction at 3 mg/kg [4] | In vivo GPR17+ cells, GPR17 Fold Induction (Over Vehicle) [4] | GPR17 Fold Induction (Over Vehicle; 5 μM) [3, 8] |
| --- | --- | --- | --- | --- | --- | --- | --- | --- |
| 3-[4-(5-benzylpyrimidin-2-yl)piperazin-1-yl]-7-(1-methyl-1H-pyrazol-4-yl)imidazo[1,2-b]pyridazine [Compound 52] | 1950 | 2.66 | 9.09 | 5.41 | – | – | – | – |
| Cn1cc(-c2ccc3c(N4CCN(c5ncc(Cc6ccccc6)cn5)CC4)cnn3n2)cn1 [Compound 8, 3-[4-(5-benzylpyrimidin-2-yl)piperazin-1-yl]-6-(1-methyl-1H-pyrazol-4-yl)pyrazolo[1,5-b]pyridazine] | 1680 | 2.33 | 10.86 | 3.18 | – | – | – | – |
| Cn1cc(-c2ccc3c(N4CCN(c5ncccn5)CC4)cnn3c2)cn1 [Compound 10, 6-(1-methyl-1H-pyrazol-4-yl)-3-(4-pyrimidin-2-ylpiperazin-1-yl)pyrazolo[1,5-a]pyridine] | 6190 | 1.41 | 5.65 | 3.81 | – | – | – | – |
| Cn1cc(-c2ccc3c(N4CCN(C(=O)OCCC5CCOCC5)CC4)cnn3c2)cn1 [Compound 15, 2-(tetrahydro-2H-pyran-4-yl)ethyl 4-[6-(1-methyl-1H-pyrazol-4-yl)pyrazolo[1,5-a]pyridin-3-yl]piperazine-1-carboxylate] | 1410 | 1.97 | 6.37 | 3.98 | – | – | – | – |
| CCC(CC)OC(=O)N1CCN(c2cnn3cc(-c4cnn(C)c4)ccc23)CC1 [Compound 16, 1-ethylpropyl 4-[6-(1-methyl-1H-pyrazol-4-yl)pyrazolo[1,5-a]pyridin-3-yl]piperazine-1-carboxylate] | 283 | 5.15 | 6.82 | 2.39 | < 1000 | – | – | – |
| Cn1cc(-c2ccc3c(N4CCN(C(=O)Cc5ccccc5)CC4)cnn3c2)cn1 [Compound 18, 6-(1-methyl-1H-pyrazol-4-yl)-3-[4-(phenylacetyl)piperazin-1-yl]pyrazolo[1,5-a]pyridine] | 1650 | 1.77 | 4.40 | 3.50 | – | – | – | – |
| COCCn1cc(-c2ccc3c(N4CCN(c5ncc(Cc6ccccc6)cn5)CC4)cnn3c2)cn1 [Compound 29, 3-[4-(5-benzylpyrimidin-2-yl)piperazin-1-yl]-6-[1-(2-methoxyethyl)-1H-pyrazol-4-yl]pyrazolo[1,5-a]pyridine] | 925 | 4.26 | 9.41 | 3.20 | – | – | – | – |
| Cn1cc(-c2ccc3c(N4CCN(C(=O)OC5CCC5)CC4)cnn3c2)cn1 [Compound 32, cyclobutyl 4-[6-(1-methyl-1H-pyrazol-4-yl)pyrazolo[1,5-a]pyridin-3-yl]piperazine-1-carboxylate] | 320 | 2.96 | 10.59 | 6.99 | – | – | – | – |
| C[C@@H](OC(=O)N1CCN(c2cnn3cc(-c4cnn(C)c4)ccc23)CC1)c1ccccc1 [Compound 33, (R)-1-phenylethyl 4-(6-(1-methyl-1H-pyrazol-4-yl)pyrazolo[1,5-a]pyridin-3-yl)piperazine-1-carboxylate] | 7.17 | 2.44 | 13.76 | 7.14 | – | – | – | – |
| C[C@H](OC(=O)N1CCN(c2cnn3cc(-c4cnn(C)c4)ccc23)CC1)c1ccccc1 [Compound 34, (S)-1-phenylethyl 4-(6-(1-methyl-1H-pyrazol-4-yl)pyrazolo[1,5-a]pyridin-3-yl)piperazine-1-carboxylate] | 786 | 2.00 | 5.16 | 5.12 | – | – | – | – |
| Cn1cc(-c2ccc3c(N4CCC(c5ncc(Cc6ccccc6)cn5)C4)cnn3c2)cn1 (stereo not drawn) [Compound 36, 3-[3-(5-benzylpyrimidin-2-yl)pyrrolidin-1-yl]-6-(1-methyl-1H-pyrazol-4-yl)pyrazolo[1,5-a]pyridine] | 685 | 1.92 | 7.08 | 5.22 | – | – | – | – |
| Cn1cc(-c2ccc3c(N4CCCN(c5ncc(Cc6ccccc6)cn5)CC4)cnn3c2)cn1 [Compound 37, 3-[4-(5-benzylpyrimidin-2-yl)-1,4-diazepan-1-yl]-6-(1-methyl-1H-pyrazol-4-yl)pyrazolo[1,5-a]pyridine] | 673 | 2.95 | 5.81 | 7.65 | – | – | – | – |
| Cn1cc(-c2ccc3c(N4CCN(c5ncc(C(O)Cc6ccccc6)cn5)CC4)cnn3c2)cn1 (stereo not drawn) [Compound 167, 1-(2-{4-[6-(1-methyl-1H-pyrazol-4-yl)pyrazolo[1,5-a]pyridin-3-yl]piperazin-1-yl}pyrimidin-5-yl)-2-phenylethanol] | – | 16.83 | 7.07 | – | – | – | – | – |
| [2H]c1c([2H])c(C(OC(=O)N2CCN(c3cnn4cc(-c5cnn(C)c5)ccc34)CC2)C([2H])([2H])[2H])c([2H])c([2H])c1Cl (stereo not drawn) [Compound 291, 1-(4-chlorophenyl-2,3,5,6-d4) ethyl-2,2,2-d3 4-(6-(1-methyl-1H-pyrazol-4-yl)pyrazolo[1,5-a]pyridin-3-yl)piperazine-1-carboxylate] | 0.016 | – | 6.24 | – | – | 6.93 | – | – |
| C[C@@H](OC(=O)N1CCN(c2cnn3cc(-c4cnn(C)c4)ccc23)CC1)c1cccnc1 [Compound 315, (1R)-1-pyridin-3-ylethyl 4-[6-(1-methyl-1H-pyrazol-4-yl)pyrazolo[1,5-a]pyridin-3-yl]piperazine-1-carboxylate] | 547 | – | 4.27 | – | – | 1.05 | – | – |
| Cc1ccc(C(C)OC(=O)N2CCN(c3cnn4cc(-c5cnn(C)c5)ccc34)CC2)cn1 (stereo not drawn) [Compound 317, 1-(6-methylpyridin-3-yl)ethyl 4-[6-(1-methyl-1H-pyrazol-4-yl)pyrazolo[1,5-a]pyridin-3-yl]piperazine-1-carboxylate] | 17.3 | – | 12.64 | – | – | 2.97 | – | – |
| COc1cc2c(cc1OC)-c1[nH]nc(Nc3cccc(F)c3)c1C2 [JNJ-10198409, JNJ=10198409, reference compound] | – | – | – | – | > 10000 | – | 1.16 | 3.87 |
| CN1CCN(c2ccc(Nc3ncc4cc(C#N)c(=O)n(C5CCCC5)c4n3)cc2)CC1 [ON123300, reference compound] | – | – | – | – | 73.5 | – | 1.49 | 6.72 |
| COc1ccc(N2Cc3cnc(Nc4ccc(F)cc4)nc3N([C@@H]3CC[C@@H](O)C3)C2=O)cc1 [RO4396686, reference compound] | – | – | – | – | 370 | – | 9.23 | 3.61 |
| CNC(=O)c1cc(COc2nnc(Nc3ccc(Cl)cc3)c3ccoc23)ccn1 [Telatinib, telatinib, reference compound] | – | – | – | – | 68.8 | – | 10.68 | 3.90 |

Reference: US20250129067A1 (Progentos Therapeutics, Inc., priority 2021, published 2025)
